Assay results from ChEMBL document CHEMBL1201862, “PubChem BioAssay data set” (2004).
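Tested at 5 concentrations; 48 h exposure; 96-well plates; endpoints linearly interpolated, else capped at highest concentration. Abbreviation: GI50, concentration required for 50% inhibition of growth.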 Calls of active or inactive are those of the source. Cut-off read from the data, not from the text of the source: active = GI50 up to about 1.1 µM and inactive = higher.

Experiments:
Test in all cases: NCI-60 cell line screen, 48 h
HOP-18 = tested on: HOP-18
SNB-78 = tested on: SNB-78
M14 = tested on: M14
SF-539 = tested on: SF-539
NCI-H226 = tested on: NCI-H226
CCRF-CEM = tested on: CCRF-CEM
NCI-H522 = tested on: NCI-H522
IGROV-1 = tested on: IGROV-1
KM-20L2 = tested on: KM-20L2
HCT-116 = tested on: HCT-116
HOP-62 = tested on: HOP-62
RXF 393 = tested on: RXF 393
OVCAR-8 = tested on: OVCAR-8
SF-295 = tested on: SF-295
LXFL 529 = tested on: LXFL 529
NCI-H23 = tested on: NCI-H23
HL-60 = tested on: HL-60
Malme-3M = tested on: Malme-3M
UACC-257 = tested on: UACC-257
OVCAR-3 = tested on: OVCAR-3
SR = tested on: SR
DMS-114 = tested on: DMS-114
HCT-15 = tested on: HCT-15
SK-MEL-5 = tested on: SK-MEL-5
EKVX = tested on: EKVX
CAKI-1 = tested on: CAKI-1
SW-620 = tested on: SW-620
COLO 205 = tested on: COLO 205
NCI-H460 = tested on: NCI-H460
SNB-19 = tested on: SNB-19
DLD-1 = tested on: DLD-1
SN12C = tested on: SN12C
RPMI-8226 = tested on: RPMI-8226
SK-MEL-28 = tested on: SK-MEL-28
SF-268 = tested on: SF-268
UO-31 = tested on: UO-31
LOX IMVI = tested on: LOX IMVI
M19-MEL = tested on: M19-MEL
K562 = tested on: K562
MOLT-4 = tested on: MOLT-4
OVCAR-5 = tested on: OVCAR-5
U-251 = tested on: U-251
TK-10 = tested on: TK-10
SNB-75 = tested on: SNB-75
RXF 631 = tested on: RXF 631
786-0 = tested on: 786-0
OVCAR-4 = tested on: OVCAR-4
KM12 = tested on: KM12
SK-MEL-2 = tested on: SK-MEL-2
ACHN = tested on: ACHN
A549 = tested on: A549
HT-29 = tested on: HT-29
HCC 2998 = tested on: HCC 2998
HOP-92 = tested on: HOP-92
A498 = tested on: A498
DMS-273 = tested on: DMS-273
SK-OV-3 = tested on: SK-OV-3
UACC-62 = tested on: UACC-62
XF498 = tested on: XF498

CCOc1cc2c[n+](C)c3c4cc(OC)c(OC)cc4ccc3c2cc1OC
GI50 (HOP-18): 60.8 µM (inactive)
GI50 (SNB-78): > 100 µM (inactive)
GI50 (M14): > 100 µM (inactive)
GI50 (SF-539): > 100 µM (inactive)
GI50 (NCI-H226): > 100 µM (inactive)
GI50 (CCRF-CEM): 20.8 µM (inactive)
GI50 (NCI-H522): > 100 µM (inactive)
GI50 (IGROV-1): > 100 µM (inactive)
GI50 (KM-20L2): > 100 µM (inactive)
GI50 (HCT-116): > 100 µM (inactive)
GI50 (HOP-62): > 100 µM (inactive)
GI50 (RXF 393): > 100 µM (inactive)
GI50 (OVCAR-8): 17.7 µM (inactive)
GI50 (SF-295): > 100 µM (inactive)
GI50 (LXFL 529): > 100 µM (inactive)
GI50 (NCI-H23): > 100 µM (inactive)
GI50 (HL-60): 97.5 µM (inactive)
GI50 (Malme-3M): > 100 µM (inactive)
GI50 (UACC-257): > 100 µM (inactive)
GI50 (OVCAR-3): > 100 µM (inactive)
GI50 (SR): 20.4 µM (inactive)
GI50 (DMS-114): > 100 µM (inactive)
GI50 (HCT-15): > 100 µM
GI50 (SK-MEL-5): > 100 µM (inactive)
GI50 (EKVX): > 100 µM (inactive)
GI50 (CAKI-1): > 100 µM (inactive)
GI50 (SW-620): > 100 µM (inactive)
GI50 (COLO 205): > 100 µM (inactive)
GI50 (NCI-H460): > 100 µM (inactive)
GI50 (SNB-19): > 100 µM (inactive)
GI50 (DLD-1): > 100 µM (inactive)
GI50 (SN12C): > 100 µM (inactive)
GI50 (RPMI-8226): > 100 µM (inactive)
GI50 (SK-MEL-28): > 100 µM (inactive)
GI50 (SF-268): > 100 µM (inactive)
GI50 (UO-31): > 100 µM (inactive)
GI50 (LOX IMVI): > 100 µM (inactive)
GI50 (M19-MEL): > 100 µM (inactive)
GI50 (K562): > 100 µM (inactive)
GI50 (MOLT-4): > 100 µM (inactive)
GI50 (OVCAR-5): > 100 µM (inactive)
GI50 (U-251): > 100 µM (inactive)
GI50 (TK-10): > 100 µM (inactive)
GI50 (SNB-75): > 100 µM (inactive)
GI50 (RXF 631): 4.07 µM (inactive)
GI50 (786-0): 17.7 µM (inactive)
GI50 (OVCAR-4): > 100 µM (inactive)
GI50 (KM12): > 100 µM (inactive)
GI50 (SK-MEL-2): > 100 µM (inactive)
GI50 (ACHN): > 100 µM (inactive)
GI50 (A549): > 100 µM (inactive)
GI50 (HT-29): 13.6 µM (inactive)
GI50 (HCC 2998): > 100 µM (inactive)
GI50 (HOP-92): > 100 µM (inactive)

O=C1[C@@H]2C(c3ccc(Br)cc3)=NO[C@@H]2C(=O)N1c1ccc(Cc2ccc(N3C(=O)[C@H]4C(c5ccc(Br)cc5)=NO[C@H]4C3=O)cc2)cc1
GI50 (HCT-116): > 40 µM (inactive)
GI50 (SR): 19.1 µM (inactive)
GI50 (HCT-15): > 40 µM
GI50 (SN12C): > 40 µM (inactive)
GI50 (A498): 0.0139 µM (active)
GI50 (DMS-273): > 40 µM (inactive)
GI50 (TK-10): 16.9 µM (inactive)
GI50 (RXF 631): > 40 µM (inactive)
GI50 (ACHN): > 40 µM (inactive)
GI50 (HOP-92): > 40 µM (inactive)

O=C1NC(=S)NC(=O)C1=Cc1cc2c(cc1[N+](=O)[O-])OCO2
GI50 (HOP-18): > 100 µM (inactive)
GI50 (SNB-78): > 100 µM (inactive)
GI50 (M14): 77.6 µM (inactive)
GI50 (SF-539): 83.2 µM (inactive)
GI50 (NCI-H226): > 100 µM (inactive)
GI50 (SK-OV-3): > 100 µM (inactive)
GI50 (CCRF-CEM): 55.3 µM (inactive)
GI50 (NCI-H522): > 100 µM (inactive)
GI50 (IGROV-1): > 100 µM (inactive)
GI50 (KM-20L2): > 100 µM (inactive)
GI50 (HCT-116): 54.1 µM (inactive)
GI50 (HOP-62): > 100 µM (inactive)
GI50 (RXF 393): > 100 µM (inactive)
GI50 (OVCAR-8): 73.3 µM (inactive)
GI50 (HL-60): 35.8 µM (inactive)
GI50 (Malme-3M): > 100 µM (inactive)
GI50 (UACC-257): > 100 µM (inactive)
GI50 (OVCAR-3): > 100 µM (inactive)
GI50 (SR): 35.9 µM (inactive)
GI50 (DMS-114): 36.8 µM (inactive)
GI50 (HCT-15): 39.7 µM
GI50 (SK-MEL-5): > 100 µM (inactive)
GI50 (EKVX): > 100 µM (inactive)
GI50 (CAKI-1): 94.4 µM (inactive)
GI50 (SW-620): 39.1 µM (inactive)
GI50 (COLO 205): > 100 µM (inactive)
GI50 (NCI-H460): > 100 µM (inactive)
GI50 (SNB-19): > 100 µM (inactive)
GI50 (DLD-1): 67.3 µM (inactive)
GI50 (SN12C): 74.6 µM (inactive)
GI50 (RPMI-8226): 42.2 µM (inactive)
GI50 (SK-MEL-28): > 100 µM (inactive)
GI50 (SF-268): > 100 µM (inactive)
GI50 (UO-31): > 100 µM (inactive)
GI50 (M19-MEL): > 100 µM (inactive)
GI50 (K562): 41.8 µM (inactive)
GI50 (MOLT-4): 51.4 µM (inactive)
GI50 (A498): > 100 µM (inactive)
GI50 (DMS-273): 63.1 µM (inactive)
GI50 (U-251): > 100 µM (inactive)
GI50 (TK-10): > 100 µM (inactive)
GI50 (SNB-75): > 100 µM (inactive)
GI50 (RXF 631): 97.3 µM (inactive)
GI50 (786-0): 62.8 µM (inactive)
GI50 (OVCAR-4): > 100 µM (inactive)
GI50 (KM12): 40.6 µM (inactive)
GI50 (SK-MEL-2): > 100 µM (inactive)
GI50 (UACC-62): > 100 µM (inactive)
GI50 (ACHN): > 100 µM (inactive)
GI50 (A549): > 100 µM (inactive)
GI50 (HCC 2998): > 100 µM (inactive)

CCOc1ccc(NC(=O)CCC(=O)NN)cc1
GI50 (HOP-18): > 100 µM (inactive)
GI50 (SNB-78): > 100 µM (inactive)
GI50 (M14): > 100 µM (inactive)
GI50 (XF498): 31.7 µM (inactive)
GI50 (NCI-H226): > 100 µM (inactive)
GI50 (CCRF-CEM): > 100 µM (inactive)
GI50 (NCI-H522): > 100 µM (inactive)
GI50 (KM-20L2): > 100 µM (inactive)
GI50 (HOP-62): > 100 µM (inactive)
GI50 (RXF 393): > 100 µM (inactive)
GI50 (OVCAR-8): > 100 µM (inactive)
GI50 (SF-295): > 100 µM (inactive)
GI50 (LXFL 529): > 100 µM (inactive)
GI50 (NCI-H23): > 100 µM (inactive)
GI50 (HL-60): > 100 µM (inactive)
GI50 (Malme-3M): > 100 µM (inactive)
GI50 (UACC-257): > 100 µM (inactive)
GI50 (OVCAR-3): > 100 µM (inactive)
GI50 (DMS-114): > 100 µM (inactive)
GI50 (HCT-15): 68.7 µM
GI50 (SK-MEL-5): > 100 µM (inactive)
GI50 (EKVX): > 100 µM (inactive)
GI50 (CAKI-1): > 100 µM (inactive)
GI50 (SW-620): > 100 µM (inactive)
GI50 (COLO 205): > 100 µM (inactive)
GI50 (NCI-H460): > 100 µM (inactive)
GI50 (SNB-19): > 100 µM (inactive)
GI50 (DLD-1): > 100 µM (inactive)
GI50 (SN12C): 94 µM (inactive)
GI50 (RPMI-8226): > 100 µM (inactive)
GI50 (SK-MEL-28): > 100 µM (inactive)
GI50 (SF-268): > 100 µM (inactive)
GI50 (UO-31): > 100 µM (inactive)
GI50 (LOX IMVI): > 100 µM (inactive)
GI50 (K562): > 100 µM (inactive)
GI50 (MOLT-4): > 100 µM (inactive)
GI50 (DMS-273): > 100 µM (inactive)
GI50 (OVCAR-5): > 100 µM (inactive)
GI50 (U-251): > 100 µM (inactive)
GI50 (TK-10): > 100 µM (inactive)
GI50 (SNB-75): > 100 µM (inactive)
GI50 (786-0): > 100 µM (inactive)
GI50 (OVCAR-4): > 100 µM (inactive)
GI50 (KM12): > 100 µM (inactive)
GI50 (SK-MEL-2): > 100 µM (inactive)
GI50 (ACHN): > 100 µM (inactive)
GI50 (A549): > 100 µM (inactive)
GI50 (HT-29): > 100 µM (inactive)
GI50 (HCC 2998): > 100 µM (inactive)
GI50 (HOP-92): > 100 µM (inactive)
